Measured values published in patent EP2265599B1, “CRYSTAL FORM OF PHENYLAMINOPYRIMIDINE DERIVATIVE” (Natco Pharma Limited, priority 2008, dated 2009).

Assays:
Baf3T315I = test: In vivo anti-leukemic activity, blast cell count in blood smears, Baf3T315I implanted nude mice; details: Imatinib 10mg/kg, AN019 20mg/kg, AN024 20mg/kg, oral gavage or ip from day 15; up to day 42
From the text: (§1) Blood smears were obtained via the tail vein or via the femoral vein every 6th day and blast cells counted and graphically represented.
(§2) Abdominal swelling and decrease in activity was monitored daily, blood smear taken via the tail vein or the femoral vein every 6th day and H&E stained as per standard protocols. 42 days after implantation, mice were sacrificed and spleens harvested.
(§3) Nude mice were intraperitoneally implanted with Baf3 mutant cells (wt, T315I, M351T or E255K). […] Blood was drawn from the femoral vein or tail vein every 6th day and blast cell count determined and graphically represented.

Baf3M351T = test: In vivo anti-leukemic activity, blast cell count in blood smears, Baf3M351T implanted nude mice; details: Imatinib 10mg/kg, AN019 20mg/kg, AN024 20mg/kg, oral gavage or ip from day 15; up to day 42
From the text: as §1, §2, §3

Baf3E255K = test: In vivo anti-leukemic activity, blast cell count in blood smears, Baf3E255K implanted nude mice; details: Imatinib 10mg/kg, AN019 20mg/kg, AN024 20mg/kg, oral gavage or ip from day 15; up to day 42
From the text: as §1, §2, §3

[1] = system: K562 luc human leukemia cells; test: Drug effectiveness (De) from in vivo luciferase studies; set-up: species or system nude mice
From the text: [formula] Where: • Σalive = total number of mice alive per concentration at the end of experiment times photon count, Eluc = total number of mice alive showing luciferase expression per concentration at end of experiment and c represents control untreated animals times photon count and ∑c-initial represents the initial number of animals in control at start of experiment times photon count.

K5621uc cells = test: Drug temporal penetrance (Tp) after stopping drug treatment; format: in vivo, nude mice; details: AN019 20mg/kg, AN024 20mg/kg, Imatinib 10mg/kg, daily ip from day 15, stopped on day 35, imaged till day 45
Method: The temporal penetrance was calculated applying the following equation, Tp=. (((P)/(n))a -((P)/(n))ter)/(((P)/(n))a -((P)/(n))b) [formula]
Where: • P=photon counts at day 'a', day 'ter', or day 'b' where 'a' is the day when drug treatment was stopped and 'ter' is the day when the experiment was terminated and 'b' is the day where P is minimum after day a but before day 'ter'. • n=number of animals alive when P was measured.
The animals were imaged at 6 day intervals post transplantation. […] Drug treatment was stopped on day 35 and animals were imaged till day 45, and calculated as described in methods.

ZR-71 = test: Matrigel invasion assay (modified Boyden chamber), ZR-71; format: cell-based; details: cells treated 48 h
Method: (§4) The in vitro invasiveness of 4910, 5310 and U87 glioma cells and MDAMB231 and ZR71 breast cancer cells in the presence of specified concentrations of compounds were assessed using a modified Boyden chamber assay. Cells were treated with these compounds for 48 h. 1x10^6 cells were suspended in 600µl of serum-free medium supplemented with 0.2% BSA and placed in the upper compartment of the transwell chambers (Coming Costar Fischer Scientific Cat #07-200-158, Pittsburgh PA) coated with Matrigel (0.7 mg/ml). The lower compartment of the chamber was filled with 200 µl of serum medium and the cells were allowed to migrate for 24 h. After incubation, the cells were fixed and stained with Hema-3 and quantified as previously described (Mohanam et al. 1993). The migrated cells were imaged microscopically to determine the reduction in invasiveness induced by the compounds of this invention.
(§5) The in vitro invasiveness of 4910, 5310 and U87 glioma cells and MDAMB231 and ZR71 breast cancer cells in the presence of specified concentrations of compounds were assessed using a modified Boyden chamber assay. Cells were treated with these compounds for 48 h.

MDA-MB-231 = test: Matrigel invasion assay (modified Boyden chamber), MDA-MB-231; format: cell-based; details: cells treated 48 h
Method: as §4, §5

4910 = test: Matrigel invasion assay (modified Boyden chamber), 4910; format: cell-based, human; details: cells treated 48 h
Method: as §4, §5

5310 = test: Matrigel invasion assay (modified Boyden chamber), 5310; format: cell-based; details: cells treated 48 h
Method: as §4, §5

U87 = test: Matrigel invasion assay (modified Boyden chamber), U87; format: cell-based; details: cells treated 48 h
Method: as §4, §5

ZR-71 cells = test: In vitro angiogenic assay (conditioned media on human dermal endothelial cells), ZR-71; format: cell-based
Method: (§6) The in vitro angiogenesis of 4910, 5310 and U87 glioma cells and MDAMB231 and ZR71 breast cancer cells in the presence of specified concentrations of compounds were determined as follows, cells (2x10^4/well) were seeded in 8-well chamber slides and were treated with various concentrations of test compounds. After a 24 h incubation period, the conditioned media was removed and added to a 4x 10^4 human dermal endothelial cell (monolayer in 8-well chamber slides) and the human dermal endothelial cells were allowed to grow for 72 h. Cells were then fixed in 3.7% formaldehyde and stained with H&E and photographed.

MDA-MB-231 cells = test: In vitro angiogenic assay (conditioned media on human dermal endothelial cells), MDA-MB-231; format: cell-based; details: control condition and after radiation
Method: as §6

[2] = system: Glioma xenograft cells 4910; test: In vitro angiogenic assay (conditioned media on human dermal endothelial cells), 4910; format: cell-based; details: 4910 cells, with and without radiation
Method: as §6

5310 cells = test: In vitro angiogenic assay (conditioned media on human dermal endothelial cells), 5310; format: cell-based; details: control conditions and after radiation
Method: as §6

U87 glioma cells = test: In vitro angiogenic assay (conditioned media on human dermal endothelial cells), U87; format: cell-based; details: with and without radiation
Method: as §6

U87 cells = test: Western blot analysis for AKT, ERK and Pi3k, U87; format: cell-based; details: decrease was enhanced after radiation
Method: (§7) Western blot analysis of 4910, 5310 and U87 glioma cells and MDAMB231 and ZR71 breast cancer cells in the presence of specified concentrations of compounds were assessed as per standard protocols. Cells were treated with AN019, AN024 or Temozolomide at the specified concentrations. 24h after treatment, cells were collected and cell lysates extracted. Equal quantities of proteins were fractionated by SDS-PAGE. The fractionated proteins were blotted on to nylon membranes and immunoprobed for AKT, ERK and Pi3k. Breast cancer cell protein isolates were additionally immunoprobed for EGFR, ErbB1, ErbB2 and ErbB3.

4910 cells = test: Western blot analysis for AKT, ERK and Pi3k, 4910; format: cell-based, human; details: decrease enhanced after radiation
Method: as §7

ZR71 = test: Western blot analysis for AKT, ERK and Pi3k, ZR71; format: cell-based
Method: as §7

[3] = system: 4910, 5310 and U87 glioma cells and MDAMB231 and ZR71 breast cancer cells; test: Western blot analysis for pAKT and pERK (cell line not specified); format: cell-based; details: with and without radiation
Method: as §7

[4] = system: K562 luciferase expressing cells; test: Leukemic survival study, K562 luciferase expressing cells implanted intraperitoneally; format: in vivo, nude mice
[5] = system: 4910 human glioma xenograft cells; test: Glioma radiation study, intracranially implanted 4910 cells; format: in vivo, Nude mice
Method: Nude mice were intracranially implanted with 4910 human glioma xenograft cells (1x10^6 cells). Ten days after implantation mice were treated with AN019, AN024 or temozolomide with or without radiation (5Gy/week). The experiment was terminated at day 40 post implantation.

K562 = test: ED50 (po) and therapeutic index in leukemic mice (K562)

In the case of Cc1ccc(NC(=O)c2cccc(S(=O)(=O)C(F)(F)F)c2)cc1Nc1nccc(-c2cccnc2)n1 [AN024], the “blast cell count in blood smears” value (Baf3T315I) is reported as “significant decrease in blast cell count and was superior to AN019 treatment at day 42”, the “blast cell count in blood smears” value (Baf3M351T) is reported as “significant decrease in blast cell count and was superior to AN019 treatment at day 42” and the “blast cell count in blood smears” value (Baf3E255K) is reported as “significant decrease in blast cell count and was superior to AN019 treatment at day 42”. For the same compound, the “De (drug effectiveness)” value ([1]; 5mg/kg) was 30.00%, the “De (drug effectiveness)” value ([1]; 10mg/kg) was 85.00% and the “De (drug effectiveness)” value ([1]; 20mg/kg) was 87.00%. The “De (drug effectiveness)” value ([1]; 40mg/kg) was 90.00%, the “Tp (temporal penetrance)” value (K5621uc cells) was 2.4 and the “+Radiation % Invasion” value (ZR-71; ZR-71, with radiation) was 45%. The “-Radiation % Invasion” value (ZR-71; ZR-71, without radiation) was 48%, the “+Radiation % Invasion” value (MDA-MB-231; MDA-MB-231, with radiation) was 47% and the “-Radiation % Invasion” value (MDA-MB-231; MDA-MB-231, without radiation) was 43%. For the same compound, the “+Radiation % Invasion” value (4910; 4910, with radiation) was 39%, the “-Radiation % Invasion” value (4910; 4910, without radiation) was 56% and the “+Radiation % Invasion” value (5310; 5310, with radiation) was 32%. The “-Radiation % Invasion” value (5310; 5310, without radiation) was 27%, the “+Radiation % Invasion” value (U87; U87, with radiation) was 29% and the “-Radiation % Invasion” value (U87; U87, without radiation) was 53%. The inhibition of angiogenesis (ZR-71 cells) was “complete inhibition of angiogenesis”, the inhibition of angiogenesis (MDA-MB-231 cells) was “only a slight inhibition was observed in control and radiation treatments” and the inhibition of angiogenesis [2] was “significant inhibition of angiogenesis both with and without radiation”. The inhibition of angiogenesis (5310 cells) was “inhibition of angiogenesis was seen in control conditions, whereas angiogenesis further inhibited after radiation treatment”, the inhibition of angiogenesis (U87 glioma cells) was “significant retardation in angiogenesis with an increase in inhibition after radiation” and the ERK levels (U87 cells) was “slight decrease in ERK levels”. The AKT levels (4910 cells) was “decrease in AKT levels”, the PI3k levels (ZR71; ZR71 (cell line by context), with and without radiation) was “decrease in PI3k levels after radiation” and the AKT levels (ZR71; ZR71, unirradiated and after radiation) was “did not show any significant change under unirradiated conditions, whereas after radiation AN024 treated cells showed a decrease in AKT expression”. The “levels of pERK” value [3] was “reduction on pERK levels but to a lesser extent than AN019”, the “curative effect after withdrawal of drug treatment (animals cured at day 58)” value ([4]; drug treatment stopped at day 42, based on luminescence (Fig. 20)) was “continued to show curative effect” and the “Blast cell count from blood smears after withdrawal of drug treatment” value ([4]; drug treatment withdrawn on day 42 (Fig. 21)) was “showed effectiveness after withdrawal of drug treatment”. For the same compound, the mortality ([4]; treatment from day 15 till day 42, then withdrawn, AN024 death determined to be other than leukemia) was “showed mortality on day 38”, the “animals showing no signs of leukemia / complete absence of leukemic symptoms” value ([4]; treatment from day 15 till day 42, then withdrawn, AN024 on day 55) was 8 of the 10 animals and the “animals cured / no observable intracranial tumor” value ([5]; with radiation (5Gy/week), terminated at day 40) was 7 of 10 animals. For the same compound, the “intracranial tumours (size, appearance)” value ([5]; without radiation) was “showed presence of intracranial tumours but the tumours were well defined and not showing diffuse edges”, the “animals cured / complete absence of intracranial tumours” value ([5]; without radiation, treatment from ten days after implantation, terminated at day 40) was 3 of 10 animals and the “Therapeutic index-LD50/ED50” value (K562) was 144.
